Results reported in patent publication US7449537B2, “Antineoplastic polyalkoxyalkylsiloxanes and methods of use thereof” (NDSU Research Foundation, priority 2001, dated 2008).

What was measured:
Assay type in all cases: cell-based, human
[1] = tested on: 3-cell line panel MCF7, NCI-H460, SF-268; test: DTP screen, overall activity call over the 3-cell line panel; set-up: key to Activity: Active: Compounds which reduce the growth of any one of the cell lines to a value of +32% or less (negative numbers indicate cell kill) are generally considered to be sufficiently “active”; settings: for Activity: 1.00 E-04 Molar; for antineoplastic activity in the DTP screen: three test cell lines
Source text: (§1) For the past 10 years, the Developmental Therapeutics Program (DTP) of the National Cancer Institute (NCI) has used an in vitro model consisting of 60 human tumor cell lines as the primary anticancer screen (see, J. Natl. Cancer Inst., 83:757-766, (1991)). […] In view of this, the DTP now uses a 3-cell line panel consisting of the MCF7(breast carcinoma) cell line, the NCI-H460 (lung carcinoma) cell line, and the SF-268 (CNS glioma) cell line as its primary anticancer (antineoplastic) assay. This 3-cell line, single-dose assay has been in use by DTP for several years for the evaluation of combinatorial libraries and has proven to be an effective pre-screen for compounds with antineoplastic activity.
(§2) In the DTP protocol, each cell line is inoculated and preincubated on a microtiter plate. Test agents are then added at a single concentration and the culture incubated for 48 hours. End-point determination are made with sulforhodamine B, a protein-binding dye. Results for each test agent are reported as the percent of growth of the treated cells normalized against the growth of the corresponding untreated control cells, i.e., a reported value of +100% refers to cell growth equivalent to that of the corresponding untreated control cells. […] Compounds which reduce the growth of any one of the cell lines to a value of +32% or less (negative numbers indicate cell kill) are generally considered to be sufficiently “active” to be selected for further evaluation by NCI in a full panel of 60 tumor cell lines over a 5-log dose range.
(§3) Two poly((aminofunctional alkoxy)-alkylsiloxane) compounds were tested for antineoplastic activity in the DTP screen. The two compounds (linear poly((aminofunctional alkoxy)-alkylsiloxanes) 5 and 3) were prepared according to the procedures described in Examples 2 and 5 above, respectively. […] This compound includes 1,3-N,N-dimethylamino-2-propoxy groups.

[2] = tested on: SF-268 (CNS glioma) cell line; test: DTP 3-cell line single-dose antineoplastic pre-screen (sulforhodamine B); settings: 1.00 E-04 Molar, 48 hours, growth relative to untreated control cells; negative = cell kill
Source text: as §1, §2, §3

[3] = tested on: MCF7 (breast carcinoma) cell line; test: as above; settings: 1.00 E-04 Molar, 48 hours, growth relative to untreated control cells; negative = cell kill
Source text: as §1, §2, §3

[4] = tested on: NCI-H460 (lung carcinoma) cell line; test: as above; settings: 1.00 E-04 Molar, 48 hours, growth relative to untreated control cells; negative = cell kill
Source text: as §1, §2, §3

In the case of `C[Si](C)(C)O[Si](C)(OCCCN)O[Si](C)(OCCCN)O[Si](C)(C)C` (stereo not shown) [Compound 3, bis-(trimethylsiloxy)-1,3-dimethyl-1,3-(3-amino-1-propoxy)siloxane], the Activity [1] is reported as “Inactive” and the “antineoplastic activity in the DTP screen” value [1] is reported as “inactive”.

With `CN(C)CC(CN(C)C)O[Si](C)(O[Si](C)(C)C)O[Si](C)(OC(CN(C)C)CN(C)C)O[Si](C)(C)C` (stereo not shown) [Compound 5, bis-(trimethylsiloxy)-1,3-dimethyl, 1,3-(1,3-(N,N-dimethylamino)-2-propoxy)siloxane] the “Growth Percentages (CNS) SF-268” value [2] was −24%, the “Growth Percentages (Breast) MCF7” value [3] was −5% and the “Growth Percentages (Lung) NCI-H460” value [4] was −16%. The Activity [1] was “Active” and the “antineoplastic activity in the DTP screen” value [1] was “showed antineoplastic activity against all three test cell lines”.
